Data published in patent US20240309065A1, “SHORT APOC-II MIMETIC PEPTIDES AND METHODS OF USE” (The United States of America, as represented by the …, priority 2021, published 2024).
Where a SMILES comes first, the peptide text is derived from it. Bridges are numbered along the chain shown (N, C = ends). Where no end group is shown, it is not given here. [ ]: non-standard residue; d: D form. The star is where a group is joined. R8 = C=CCCCCCC[C@@](C)(N)C(=O)O; S5 = C=CCCC[C@](C)(N)C(=O)O; dNle = CCCC[C@@H](N)C(=O)O; Nle = CCCC[C@H](N)C(=O)O; Octanoyl = CCCCCCCC(=O)*; Sar = CNCC(=O)O

Experiments:
[1] = target: T1, LPL from bovine milk (Bos taurus, UniProt P11151); experiment: LPL activation assay (generation of NEFA); format: biochemical; details: 0-10 μM peptide, 7.45 nM LPL, apoC-II deficient plasma, 37° C. for 1 hour, NEFA measured
T1 construct: 7.45 nM of LPL from bovine milk (Sigma-Aldrich); purchased Sigma-Aldrich; host or cells: bovine milk
T1 sequence (P11151 29-478): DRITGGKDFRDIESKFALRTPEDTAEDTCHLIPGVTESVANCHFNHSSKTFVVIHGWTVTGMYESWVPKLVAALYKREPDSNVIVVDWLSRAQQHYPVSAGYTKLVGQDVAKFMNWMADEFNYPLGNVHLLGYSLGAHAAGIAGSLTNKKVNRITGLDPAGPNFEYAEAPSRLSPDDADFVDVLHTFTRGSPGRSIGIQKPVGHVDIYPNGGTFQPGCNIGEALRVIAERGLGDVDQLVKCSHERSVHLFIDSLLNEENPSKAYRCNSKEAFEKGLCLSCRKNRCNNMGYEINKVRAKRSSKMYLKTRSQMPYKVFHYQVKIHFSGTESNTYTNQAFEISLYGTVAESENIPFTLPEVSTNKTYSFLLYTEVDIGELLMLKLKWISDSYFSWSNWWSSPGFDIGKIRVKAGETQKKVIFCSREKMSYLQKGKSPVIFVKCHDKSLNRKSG
Method: (§1) LPL activity was determined by measuring the generation of NEFA. In a 96-well plate, 0-10 μM of an apoC-II mimetic peptide, 7.45 nM of LPL from bovine milk (Sigma-Aldrich), apoC-II deficient ethylenediaminetetraacetic acid (EDTA)-plasma (diluted with PBS to a final TG concentration of 3 mg/dL), 10 IU/ml heparin, 1% bovine serum albumin (BSA) (ICN Biomedicals), and PBS (Life Technologies) were combined in a final reaction volume of 50 μL, pre-incubated on ice for 30 minutes, and incubated at 37° C. for 1 hour. NEFA were measured with a coupled enzyme reaction (FUJIFILM Wako Diagnostics), in a SpectraMax Plus 384 Microplate Reader.

[2] = target: T2, Pepsin A (Sus scrofa, UniProt P00791); experiment: LPL activation ability following pepsin treatment; format: in vitro ADME; details: 1 mg/ml Pepsin A, pH 1.92, 1 hour at 37° C.; final concentration 10 µM of peptides
T2 construct: purchased Sigma Aldrich P6887-1G
T2 sequence (P00791 60-385): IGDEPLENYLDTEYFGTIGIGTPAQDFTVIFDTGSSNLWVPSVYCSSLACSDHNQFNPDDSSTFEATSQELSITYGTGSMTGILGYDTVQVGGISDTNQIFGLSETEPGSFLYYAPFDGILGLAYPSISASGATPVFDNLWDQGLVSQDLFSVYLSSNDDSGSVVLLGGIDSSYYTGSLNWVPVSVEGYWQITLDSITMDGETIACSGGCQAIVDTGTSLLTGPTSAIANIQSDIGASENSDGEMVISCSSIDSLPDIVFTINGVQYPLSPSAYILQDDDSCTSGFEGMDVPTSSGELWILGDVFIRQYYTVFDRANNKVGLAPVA
Method: as §1
Peptide resistance to proteolysis was also tested. Peptides at 0.1 mM concentration were incubated at 37° C. in 20 mM ammonium bicarbonate buffer at pH 8.2 with 10 μg/ml trypsin or […] Proteinase K. The amount of intact peptide was monitored over 24-hour time period by MALDI-TOF using internal standards (Bombesin, ACTH (1-17), ACTH (18-39), and Insulin) to quantify the relative amount of peptide in each sample. As shown in FIGS. 16A-16D, the tested peptides had varying degrees of resistance to trypsin and proteinase K. In addition, peptides were tested for LPL activation ability following pepsin treatment. Peptides (1 mM stock) were prepared in 5 mM TRIS, pH 8.2. […] In vitro generated NEFA were measured by the colorimetric assay.

[3] = test system: apoC-II knockout mice; experiment: Peptide activity in vivo in apoC-II knockout mice; details: single intraperitoneal injection 5 μmole/kg, blood at 1, 3, 6 and 24 hours; for triglycerides: compared to control
Method: A study was performed comparing the effect of D6-PV (SEQ ID NO: 15) and SPH2S (SEQ ID NO: 5) peptides in apoC-II knockout mice. Mice were given a single intraperitoneal injection of the peptide (5 μmole/kg) and blood was collected at 1 hour, 3 hours, 6 hours and 24 hours after injection. Triglycerides, total cholesterol, and non-esterified fatty acids (NEFA) were measured.

[4] = DMPC vesicle solubilization assay; details: 0.5 mM peptides, DMPC vesicles 0.5 mg/mL in PBS pH 7.4, absorbance at 660 nm for 1 hour at 24° C.
Method: Tested peptides were able to solubilize DPMC vesicles (FIG. 15). […] PBS as a negative control or 1% Triton as a positive control or 0.5 mM peptides were added to homogenous DMPC (Avanti 850345C) vesicles (0.5 mg/mL) in PBS, pH 7.4. In vitro turbidity change was monitored by following the absorbance at 660 nm for 1 hour at 24° C. Absorbance over time was plotted and the areas under the curve (AOC) were calculated.

Question: With “a(nle)(R8)TYTGIF(S5)DQVLSVLK(Sarcosine)ee ([dA][dNle][R8]TYTGIF[S5]DQVLSVLK[Sar][dE][dE]; staple 3-10) [SEQ ID NO: 35]” as the compound, how does the “efficacy for activation of LPL” value [1] read?
Answer: Its value is “decreased LPL activation abilities”.

Question: With “EK(R8)RDLYSK(S5)TAAFSTYFGIFTDQVLSVLKGEE (EK[R8]RDLYSK[S5]TAAFSTYFGIFTDQVLSVLKGEE; staple 3-10) [SEQ ID NO: 25]” as the compound, how does the “efficacy for activation of LPL” value [1] read?
Answer: Its value is “did reduce the efficacy”.

Question: With `CCCC[C@H](NC(=O)[C@H](C)NC(C)=O)C(=O)N[C@]1(C)CCCCCCC=CCCC[C@@](C)(C(=O)N[C@@H](CC(=O)O)C(=O)N[C@@H](CCC(N)=O)C(=O)N[C@H](C(=O)N[C@@H](CC(C)C)C(=O)N[C@@H](CO)C(=O)N[C@H](C(=O)N[C@@H](CC(C)C)C(=O)N[C@@H](CCCCN)C(=O)N(C)CC(=O)N[C@H](CCC(=O)O)C(=O)N[C@H](CCC(=O)O)C(=O)O)C(C)C)C(C)C)NC(=O)[C@H](Cc2ccccc2)NC(=O)[C@H]([C@@H](C)CC)NC(=O)CNC(=O)[C@H]([C@@H](C)O)NC(=O)[C@H](Cc2ccc(O)cc2)NC(=O)[C@H]([C@@H](C)O)NC1=O` [SEQ ID NO: 34, Ac-A(Nle)(R8)TYTGIF(S5)DQVLSVLK(Sarcosine)ee] (Ac-A[Nle][R8]TYTGIF[S5]DQVLSVLK[Sar][dE][dE]-OH; staple 3-10; C-terminus assumed) as the compound, how does the “LPL activation after pepsin treatment” value [2] read?
Answer: Its value is “showed resistance to pepsin treatment”.

Question: And the “efficacy for activation of LPL” value [1]?
Answer: The value was “did not affect LPL activation”.

Question: With “EK(R8)RDLYSK(S5)TAAFSTYTFIFTDQVLSVLKGEE (EK[R8]RDLYSK[S5]TAAFSTYTFIFTDQVLSVLKGEE; staple 3-10) [SEQ ID NO: 26]” as the compound, how does the “efficacy for activation of LPL” value [1] read?
Answer: Its value is “did not affect peptide efficacy”.

Question: With “DYLKEVFEKLRDLYEKFTPAVSTYTGIFTDQVLSVLKGEE [SEQ ID NO: 15, control D6-PV peptide, reference compound]” as the compound, how does the triglycerides [3] read?
Answer: The triglycerides was “decreased triglycerides to a similar extent”.

Question: With `CCCC[C@H](NC(=O)[C@H](C)N)C(=O)N[C@]1(C)CCCCCCC=CCCCC2(CCCC=CCCCCCC[C@@](C)(C(=O)N[C@@H](CCCCN)C(=O)N(C)CC(=O)N[C@H](CCC(=O)O)C(=O)N[C@H](CCC(=O)O)C(=O)O)NC(=O)[C@H](C(C)C)NC(=O)[C@H](CO)NC(=O)[C@H](CC(C)C)NC(=O)[C@H](C(C)C)NC(=O)[C@H](CCC(N)=O)NC(=O)[C@H](CC(=O)O)NC2=O)NC(=O)[C@H](Cc2ccccc2)NC(=O)[C@H]([C@@H](C)CC)NC(=O)CNC(=O)[C@H]([C@@H](C)O)NC(=O)[C@H](Cc2ccc(O)cc2)NC(=O)[C@H]([C@@H](C)O)NC1=O` (stereo partly drawn) [SEQ ID NO: 18, A(Nle)(R8)TYTGIF(B5)DQVLSV(S8)K(Sarcosine)ee-COOH] as the compound, how does the “LPL activation after pepsin treatment” value [2] read?
Answer: Its value is “showed resistance to pepsin treatment”.

Question: With “Octanoic -A(Nle)(R8)TYTGIF(S5)DQVLSVLK(Sarcosine)ee [SEQ ID NO: 37]” as the compound, how does the “efficacy for activation of LPL” value [1] read?
Answer: Its value is “did not affect LPL activation”.

Question: Which “efficacy for activation of LPL” value [1] does the source give for “STAAM(R8)TYTGIF(S5)DQVLSVLKGEE (STAAM[R8]TYTGIF[S5]DQVLSVLKGEE; staple 6-13) [SEQ ID NO: 5]” here?
Answer: Its value is “increased efficacy”.

Question: What about the “non-esterified fatty acids (NEFA)” value [3] of the same compound?
Answer: The value was “more effective than D6-PV”.

Question: What about the total cholesterol [3] of the same compound?
Answer: The total cholesterol was “more effective than D6-PV at decreasing total cholesterol”.

Question: What about the triglycerides [3] of the same compound?
Answer: The triglycerides was “decreased triglycerides to a similar extent”.

Question: Which “solubilization of DMPC vesicles” value [4] does the source give for “AMSTYTGIFTDQVLSVLKGEE [SEQ ID NO: 14, truncated ApoC-II peptide]” here?
Answer: Its value is “did not”.

Question: With “a(nle)(R8)TYTGIF(S5)DQVLSVLk(Sarcosine)ee ([dA][dNle][R8]TYTGIF[S5]DQVLSVL[dK][Sar][dE][dE]; staple 3-10) [SEQ ID NO: 36]” as the compound, how does the “efficacy for activation of LPL” value [1] read?
Answer: Its value is “decreased LPL activation abilities”.

Question: Which “efficacy for activation of LPL” value [1] does the source give for “Octanoic-(R8)TYTGIF(S5)DQVLSVLK(Sarcosine)eeee (Octanoyl-[R8]TYTGIF[S5]DQVLSVLK[Sar][dE][dE][dE][dE]; staple 1-8) [SEQ ID NO: 39]” here?
Answer: The value was “decreased peptide activity”.
